Results as given in patent US12364213B2, “Container for growth of cryo-sprouts” (RÄ FOODS HOLDINGS LLC, priority 2015, dated 2025).

Key:
[1] = system: Salmonella, Listeria monocytogenes, and E. coli O157:H7; assay: Pathogen challenge study, overall impact of soak treatments versus Control; assay type: cell-based; details: seed soak treatments; 40° F. and 50° F.
[2] = system: L. monocytogenes; assay: L. monocytogenes cocktail challenge on sprouts grown from soaked seeds (MPN and direct plating); assay type: cell-based, Listeria monocytogenes
Experimental: (§1) Isolates used to inoculate cryo-sprouts were grown in pure culture and quantitated in order to determine dilutions required to achieve a target level when inoculated into the product.
(§2) The study encompassed three treatments exposed to two different temperatures over the course of 28 days, with weekly pulls, see Table 1 below.
(§3) Initial counts were determined immediately after inoculation for each treatment on Day 0, and again after incubation at 40° F. for 21 days, and 50° F. for 12 days. Subsequent pulls occurred on a weekly basis from Day 0 (after the 21 days at 40° F. or after 12 days at 50° F.) through Day 28.
(§4) The pulls occurred on Shelf Life Day 0, 7, 14, 21, and 28.
(§5) One milliliter from each of the five Salmonella cultures was combined to form a cocktail. The Listeria monocytogenes and E. coli O157:H7 cultures were similarly combined to form a second and third cocktail. These three cocktails were diluted and added to the trays containing 60 ml of deionized water.
(§6) Plastic trays with membrane were filled with 35 grams of soaked sprout seeds representing each of the three treatment groups.
(§7) Sixty milliliters of deionized water was added to each tray along with a final concentration of approximately 1.0 E+3-1.0 E+4 cfu/ml of each of the three cocktails (Salmonella and Listeria together in one set, and E. coli O157:H7 into another set).
(§8) Listeria samples were serially diluted and plated on a TSA basal layer and capped with Modified Oxford Medium (MOX), incubated at 95° F. (35° C.) for 2 days. An MPN, consisting of a combination of the three samples, was also set up on each pull day due to the high number of other organisms present in the samples which obscured the direct counts.

[3] = system: Salmonella spp.; assay: Salmonella spp. cocktail challenge on sprouts grown from soaked seeds (MPN and direct plating); assay type: cell-based
Experimental: as §1, §2, §3, §4, §5, §6, §7
Salmonella samples were serially diluted and spread plated on a Tryptic Soy Agar (TSA) basal layer and capped with XLD, incubated at 95° F. (35° C.) for 2 days. An MPN (Most probable number), consisting of a combination of the three samples, was also set up on each pull day due to the high number of other organisms present in the samples which obscured the direct counts.

[4] = system: total aerobic bacteria; assay: Aerobic Plate Count at Shelf Life Day 28 on samples grown at 40° F.; assay type: cell-based
Experimental: Aerobic Plate Counts were also analyzed at Shelf Life Day 28 on the samples grown at 40° F. by plating to Standard Methods Agar and incubated at 95° F. for 2 days to determine the total aerobic bacteria present in the samples.

[5] = system: E. coli O157:H7; assay: E. coli O157:H7 cocktail challenge on sprouts grown from soaked seeds (MPN and direct plating); assay type: cell-based
Experimental: as §1, §2, §3, §4, §5, §6, §7
as §8, with “E. coli O157:H7” for “Listeria”, “EMB,” for “Modified Oxford Medium (MOX),”

[6] = grown 12 days at 50° F., held at 40° F.
[7] = grown 12 days at 50° F., Shelf Life Day 0
[8] = grown 12 days at 50° F., Shelf Life Day 7 at 40° F.
[9] = grown 12 days at 50° F., Shelf Life Day 14 at 40° F.
[10] = grown 12 days at 50° F., Shelf Life Day 21 at 40° F.
[11] = grown 12 days at 50° F., Shelf Life Day 28
[12] = grown 12 days at 50° F., Shelf Life Day 28 at 40° F.
[13] = grown 21 days at 40° F., Shelf Life Day 0 at 40° F.
[14] = grown 21 days at 40° F., Shelf Life Day 7 at 40° F.
[15] = grown 21 days at 40° F., Shelf Life Day 14 at 40° F.
[16] = grown 21 days at 40° F., Shelf Life Day 21
[17] = grown 21 days at 40° F., Shelf Life Day 21 at 40° F.
[18] = grown 21 days at 40° F., Shelf Life Day 28
[19] = grown 21 days at 40° F., Shelf Life Day 28 at 40° F.
[20] = grown 21 days at 40° F., held at 40° F. through Shelf Life Day 28, from Day 0 to below detectable limit
[21] = grown 21 days at 40° F., held at 40° F., end of study, below detectable limit

## CC(=O)O [Acetic Acid, acetic acid]
[1]
  impact on the counts in comparison to the Control treatment: did not appear to have a significant impact
[2]; [6]
  L. monocytogenes increase through Shelf Life Day 21: approximately 2.5 logs
[2]; [7]
  L. monocytogenes (MPN/g) or (CFU): > 1,100 MPN/g
  Log10 (L. monocytogenes MPN/g) or (CFU): 3.04 Log10 MPN/g
[2]; [8]
  L. monocytogenes (MPN/g) or (CFU): 24,000 MPN/g
  Log10 (L. monocytogenes MPN/g) or (CFU): 4.38 Log10 MPN/g
[2]; [9]
  L. monocytogenes (MPN/g) or (CFU): > 110,000 MPN/g
  Log10 (L. monocytogenes MPN/g) or (CFU): 5.04 Log10 MPN/g
[2]; grown 12 days at 50° F., Shelf Life Day 21
  L. monocytogenes average, direct plating: 2.1 E+5 cfu/g
[2]; [10]
  L. monocytogenes (MPN/g) or (CFU): 2.4 E+5 MPN/g
  Log10 (L. monocytogenes MPN/g) or (CFU): 5.38 Log10 MPN/g
[2]; grown 12 days at 50° F., Shelf Life Day 21 at 40° F., listed as Acetic
  L. monocytogenes (MPN/g) or (CFU): 240,000 MPN/g
[2]; [11]
  L. monocytogenes log increase, direct plating method: 5.14 logs
[2]; grown 12 days at 50° F., Shelf Life Day 28, from inoculated controls
  L. monocytogenes overall log increase, MPN method: 1.82 logs
[2]; grown 12 days at 50° F., Shelf Life Day 28, obscured by background flora, possible overestimation
  L. monocytogenes direct counts, avg. log value: 7.95
[2]; [12]
  L. monocytogenes (MPN/g) or (CFU): 43,000 MPN/g
  Log10 (L. monocytogenes MPN/g) or (CFU): 4.63 Log10 MPN/g
[2]; [13]
  L. monocytogenes (MPN/g) or (CFU): 230 MPN/g
  Log10 (L. monocytogenes MPN/g) or (CFU): 2.36 Log10 MPN/g
[2]; [14]
  L. monocytogenes (MPN/g) or (CFU): 4.3 MPN/g
  Log10 (L. monocytogenes MPN/g) or (CFU): 0.63 Log10 MPN/g
[2]; grown 21 days at 40° F., Shelf Life Day 14
  L. monocytogenes log increase, direct plating: 1.33 logs
[2]; grown 21 days at 40° F., Shelf Life Day 14, 21, and 28
  L. monocytogenes direct plating counts, average: approximately 4 logs
[2]; [15]
  L. monocytogenes (MPN/g) or (CFU): > 1,100 MPN/g
  Log10 (L. monocytogenes MPN/g) or (CFU): 3.04 Log10 MPN/g
[2]; [16]
  L. monocytogenes direct plating count: 4.04 logs
  L. monocytogenes log increase, direct plating: 1.23 logs
[2]; [17]
  L. monocytogenes (MPN/g) or (CFU): 930 MPN/g
  Log10 (L. monocytogenes MPN/g) or (CFU): 2.97 Log10 MPN/g
[2]; [18]
  L. monocytogenes direct count log value: 4.50 logs
  L. monocytogenes log increase, direct plating: 1.69 logs
  L. monocytogenes overall log increase, MPN method: > 0.23 logs
[2]; [19]
  L. monocytogenes (MPN/g) or (CFU): > 1,100 MPN/g
  Log10 (L. monocytogenes MPN/g) or (CFU): 3.04 Log10 MPN/g
[3]; [6]
  Salmonella spp. counts at each pull date via MPN and plating methods: 1.4-3 logs
[3]; [7]
  Log10 (Salmonella MPN/g) or (CFU): 3.04 Log10 MPN/g
  Salmonella (MPN/g) or (CFU): 1,100 MPN/g
[3]; [8]
  Log10 (Salmonella MPN/g) or (CFU): 2.63 Log10 MPN/g
  Salmonella (MPN/g) or (CFU): 430 MPN/g
[3]; [9]
  Log10 (Salmonella MPN/g) or (CFU): 2.46 Log10 MPN/g
  Salmonella (MPN/g) or (CFU): 290 MPN/g
[3]; [10]
  Log10 (Salmonella MPN/g) or (CFU): 2.04 Log10 MPN/g
  Salmonella (MPN/g) or (CFU): 110 MPN/g
[3]; [12]
  Log10 (Salmonella MPN/g) or (CFU): 1.63 Log10 MPN/g
  Salmonella (MPN/g) or (CFU): 43 MPN/g
[3]; [20]
  Salmonella spp. overall log reduction: 3.87 logs
[3]; [21]
  Salmonella spp. level, direct plating: < 10 cfu/g
[3]; [13]
  Log10 (Salmonella MPN/g) or (CFU): 2.18 Log10 MPN/g
  Salmonella (MPN/g) or (CFU): 150 MPN/g
[3]; [14]
  Log10 (Salmonella MPN/g) or (CFU): 0.96 Log10 MPN/g
  Salmonella (MPN/g) or (CFU): 9.2 MPN/g
[3]; [15]
  Log10 (Salmonella MPN/g) or (CFU): <−0.5 Log10 MPN/g
  Salmonella (MPN/g) or (CFU): <0.3 MPN/g
[3]; [17]
  Log10 (Salmonella MPN/g) or (CFU): <−0.5 Log10 MPN/g
  Salmonella (MPN/g) or (CFU): <0.3 MPN/g
[3]; [19]
  Log10 (Salmonella MPN/g) or (CFU): <−0.5 Log10 MPN/g
  Salmonella (MPN/g) or (CFU): < 0.3 MPN/g
[3]; grown 21 days at 40° F., Shelf Life Day 28 at 40° F., listed as Acetic
  Salmonella (MPN/g) or (CFU): <0.3 MPN/g
[4]
  Aerobic Plate Count, average: 8.1 E+8 cfu/g
  Aerobic Plate Count, avg. log value: 8.91
[5]; [6]
  E. coli O157:H7 avg. log values for each pull day: 3-5 logs
[5]; [7]
  E. coli O157:H7 (MPN/mL) or (CFU): 1,100 MPN/mL
  Log10 (E. coli O157:H7 MPN/g) or (CFU): 3.04 Log10 MPN/g
[5]; [8]
  E. coli O157:H7 (MPN/mL) or (CFU): 110,000 MPN/mL
  Log10 (E. coli O157:H7 MPN/g) or (CFU): 5.04 Log10 MPN/g
[5]; [9]
  E. coli O157:H7 (MPN/mL) or (CFU): 46,000 MPN/mL
  Log10 (E. coli O157:H7 MPN/g) or (CFU): 4.66 Log10 MPN/g
[5]; [10]
  E. coli O157:H7 (MPN/mL) or (CFU): 930 MPN/mL
  Log10 (E. coli O157:H7 MPN/g) or (CFU): 2.97 Log10 MPN/g
[5]; [11]
  E. coli O157:H7 level, MPN method: 2,400 MPN/g
[5]; grown 12 days at 50° F., Shelf Life Day 28, from Day 0 inoculated control
  E. coli O157:H7 overall log reduction, MPN method: 1.73 logs
[5]; [12]
  E. coli O157:H7 (MPN/mL) or (CFU): 2,400 MPN/mL
  Log10 (E. coli O157:H7 MPN/g) or (CFU): 3.38 Log10 MPN/g
[5]; [20]
  E. coli O157:H7 overall log reduction: 4.16 logs
[5]; [21]
  E. coli O157:H7 level, MPN: < 0.3 MPN/g
  E. coli O157:H7 level, direct plating: < 10 cfu/g
[5]; [13]
  E. coli O157:H7 (MPN/mL) or (CFU): <30 MPN/mL
  Log10 (E. coli O157:H7 MPN/g) or (CFU): 0.95 Log10 MPN/g
[5]; [14]
  E. coli O157:H7 (MPN/mL) or (CFU): 9.3 MPN/mL
  Log10 (E. coli O157:H7 MPN/g) or (CFU): 0.97 Log10 MPN/g
[5]; [15]
  E. coli O157:H7 (MPN/mL) or (CFU): 0.30 MPN/mL
  Log10 (E. coli O157:H7 MPN/g) or (CFU): −0.5 Log10 MPN/g
[5]; [17]
  E. coli O157:H7 (MPN/mL) or (CFU): <0.3 MPN/mL
  Log10 (E. coli O157:H7 MPN/g) or (CFU): <−0.5 Log10 MPN/g
[5]; [19]
  E. coli O157:H7 (MPN/mL) or (CFU): <0.3 MPN/mL
  Log10 (E. coli O157:H7 MPN/g) or (CFU): <−0.5 Log10 MPN/g
